Patent US20220062240A1, “METHODS OF TREATING CANCER USING A CLK INHIBITOR” (BioSplice Therapeutics, Inc., priority 2018, published 2022)
Like-named read-outs stand apart in the source and are kept apart here. One block for each molecule: values may come before it.

How the values were obtained:
Assay type in all cases: cell-based
BT-549 = test: CellTiter-Glo Viability Assay, breast cancer; conditions: Homo sapiens, 96 h; BT-549, breast cancer, four days; read-out: EC50
Method: (§1) Fifty-one human cancer cell lines (breast cancer (8 cell lines), colorectal cancer (6 cell lines), haematopoietic & lymphoid tumors (13 cell lines), liver cancer (3 cell lines), lung cancer (4 cell lines), ovarian cancer (4 cell lines), pancreatic cancer (8 cell lines), and prostate cancer (5 cell lines)) were tested to determine the effects of representative compounds of Formulas (I)-(XII) on cellular proliferation, as evaluated using the CellTiter-Glo® Viability Assay.
(§2) For the Cell Viability Assays, cells were plated at 300-3,000 cells/well in 384-well plates in their respective media containing 1% Penicillin-Streptomycin and incubated for four days at 37° C. and 5% CO2. Twenty-eight replicates of DMSO-treated cells served as controls and cells treated with compound were performed in duplicate.
(§3) After incubation, 10 μL of CellTiter-Glo® (Promega) was added to each well allowed to incubate for approximately 12 minutes. This reagent results in cell lysis and generation of a luminescent signal proportional to the amount of ATP present. The amount of ATP is directly proportional to the number of metabolically active, viable cells present in culture. The CellTiter-Glo® Assay generates a luminescent signal, produced by the luciferase reaction (Promega.com).
(§4) After incubation, the luminescence signal was read using an EnVision™ Multilabel Plate Reader (Perkin Elmer). Dose-response curves were generated and EC50 concentration values were calculated using Dotmatics' Studies Software (Bishops Stortford, UK).

CAMA1 = test: CellTiter-Glo Viability Assay, breast cancer; conditions: Homo sapiens, CAMA-1, 96 h; CAMA1, breast cancer, four days; read-out: EC50
Method: as §1, §2, §3, §4

DU4475 = test: CellTiter-Glo Viability Assay, breast cancer; conditions: Homo sapiens, DU-4475, 96 h; DU4475, breast cancer, four days; read-out: EC50
Method: as §1, §2, §3, §4

HCC1599 = test: CellTiter-Glo Viability Assay, breast cancer; conditions: Homo sapiens, 96 h; HCC1599, breast cancer, four days; read-out: EC50
Method: as §1, §2, §3, §4

MCF7 = test: CellTiter-Glo Viability Assay, breast cancer; conditions: Homo sapiens, 96 h; MCF7, breast cancer, four days; read-out: EC50
Method: as §1, §2, §3, §4

MDA-MB-231-Luc = test: CellTiter-Glo Viability Assay, breast cancer; conditions: Homo sapiens, 96 h; MDA-MB-231-Luc, breast cancer, four days; read-out: EC50
Method: as §1, §2, §3, §4

T47D = test: CellTiter-Glo Viability Assay, breast cancer; conditions: Homo sapiens, 96 h, breast cancer, four days, read-out: EC50
Method: as §1, §2, §3, §4

ZR-75-1 = test: CellTiter-Glo Viability Assay, breast cancer; conditions: Homo sapiens, 96 h; ZR-75-1, breast cancer, four days; read-out: EC50
Method: as §1, §2, §3, §4

all 50 cell lines = test: CellTiter-Glo Viability Assay, average across all cell lines; conditions: Homo sapiens; across all 50 cell lines; read-out: average EC50 for inhibition of cancer cell proliferation
Method: as §1, §2, §3, §4

[1] = system: colorectal cancer (6 cell lines); test: CellTiter-Glo Viability Assay, colorectal cancer; conditions: Homo sapiens, inhibition of cancer cell proliferation
Method: as §1, §2, §3, §4

[2] = system: haematopoietic & lymphoid tumors (13 cell lines); test: CellTiter-Glo Viability Assay, haematopoietic & lymphoid tumors; conditions: Homo sapiens, inhibition of cancer cell proliferation
Method: as §1, §2, §3, §4

[3] = system: liver cancer (3 cell lines); test: CellTiter-Glo Viability Assay, liver cancer; conditions: Homo sapiens, inhibition of cancer cell proliferation
Method: as §1, §2, §3, §4

[4] = system: lung cancer (4 cell lines); test: CellTiter-Glo Viability Assay, lung cancer; conditions: Homo sapiens, inhibition of cancer cell proliferation
Method: as §1, §2, §3, §4

[5] = system: ovarian cancer (4 cell lines); test: CellTiter-Glo Viability Assay, ovarian cancer; conditions: Homo sapiens, inhibition of cancer cell proliferation
Method: as §1, §2, §3, §4

[6] = system: pancreatic cancer (8 cell lines); test: CellTiter-Glo Viability Assay, pancreatic cancer; conditions: Homo sapiens, inhibition of cancer cell proliferation
Method: as §1, §2, §3, §4

[7] = system: prostate cancer (5 cell lines); test: CellTiter-Glo Viability Assay, prostate cancer; conditions: Homo sapiens
Method: as §1, §2, §3, §4

[8] = HCT-116, HCT116 cell line, read-out: Colorectal cancer, EC50 (μM) HCT116
[9] = HT-29, HT29 cell line, read-out: Colorectal cancer, EC50 (μM) HT29
[10] = SW-620, SW620 cell line, read-out: Colorectal cancer, EC50 (μM) SW620
[11] = DLD-1 cell line, read-out: Colorectal cancer, EC50 (μM) DLD-1
[12] = SW48 cell line, read-out: Colorectal cancer, EC50 (μM) SW48
[13] = SW480 cell line, read-out: Colorectal cancer, EC50 (μM) SW480
[14] = DND41, DND-41 cell line, read-out: Haematopoietic & Lymphoid tumors, EC50 (μM) DND-41
[15] = MV4-11, MV-4-11 cell line, read-out: Haematopoietic & Lymphoid tumors, EC50 (μM) MV-4-11
[16] = Rec1, REC-1 cell line, read-out: Haematopoietic & Lymphoid tumors, EC50 (μM) REC-1
[17] = SU-DHL-4, SUDHL4 cell line, read-out: Haematopoietic & Lymphoid tumors, EC50 (μM) SUDHL4
[18] = HL-60 cell line, read-out: Haematopoietic & Lymphoid tumors, EC50 (μM) HL-60
[19] = JM1 cell line, read-out: Haematopoietic & Lymphoid tumors, EC50 (μM) JM1
[20] = JURKAT, Clone E6-1 cell line, read-out: Haematopoietic & Lymphoid tumors, EC50 (μM) JURKAT, Clone E6-1
[21] = JeKo-1 cell line, read-out: Haematopoietic & Lymphoid tumors, EC50 (μM) JeKo-1
[22] = KASUMI-1 cell line, read-out: Haematopoietic & Lymphoid tumors, EC50 (μM) KASUMI-1
[23] = Loucy cell line, read-out: Haematopoietic & Lymphoid tumors, EC50 (μM) Loucy
[24] = MOLT-4 cell line, read-out: Haematopoietic & Lymphoid tumors, EC50 (μM) MOLT-4
[25] = TF-1 cell line, read-out: Haematopoietic & Lymphoid tumors, EC50 (μM) TF-1
[26] = TOLEDO cell line, read-out: Haematopoietic & Lymphoid tumors, EC50 (μM) TOLEDO
[27] = SNU-398, SNU398 cell line, read-out: Liver cancer, EC50 SNU398
[28] = HEPG2 cell line, read-out: Liver cancer, EC50 HEPG2
[29] = PLC/PRF/5 cell line, read-out: Liver cancer, EC50 PLC/PRF/5
[30] = A-427, A427 cell line, read-out: Lung cancer, EC50 (μM) A427
[31] = HCC78, HCC-78 cell line, read-out: Lung cancer, EC50 (μM) HCC-78
[32] = NCI-H460 cell line, read-out: Lung cancer, EC50 (μM) NCI-H460
[33] = NCI-H522 cell line, read-out: Lung cancer, EC50 (μM) NCI-H522
[34] = PA-1, PA1 cell line, read-out: Ovarian cancer, EC50 (μM) PA1
[35] = TOV112D, TOV-112D cell line, read-out: Ovarian cancer, EC50 (μM) TOV-112D
[36] = OV-90 cell line, read-out: Ovarian cancer, EC50 (μM) OV-90
[37] = OVCAR-3 cell line, read-out: Ovarian cancer, EC50 (μM) OVCAR-3
[38] = BXPC-3, BxPC3 cell line, read-out: Pancreatic cancer, EC50 BxPC3
[39] = CAPAN-1, Capan1 cell line, read-out: Pancreatic cancer, EC50 Capan1
[40] = Capan-2, Capan2 cell line, read-out: Pancreatic cancer, EC50 Capan2
[41] = MIA PaCa-2 cell line, read-out: Pancreatic cancer, EC50 MIA PaCa-2
[42] = PANC 05.04 cell line, read-out: Pancreatic cancer, EC50 PANC 05.04
[43] = PANC-1 cell line, read-out: Pancreatic cancer, EC50 PANC-1
[44] = UPAFII cell line, read-out: Pancreatic cancer, EC50 UPAFII
[45] = DU-145, read-out: Prostate cancer EC50 Du-145
[46] = PC-3, PC3 cell line, inhibition of cancer cell proliferation, read-out: Prostate cancer EC50 PC3
[47] = 22Rv1 cell line, inhibition of cancer cell proliferation, read-out: Prostate cancer EC50 22Rv1
[48] = LNCap clone FGC cell line, inhibition of cancer cell proliferation, read-out: Prostate cancer EC50 LNCap clone FGC
[49] = VCaP (Sigma) cell line, inhibition of cancer cell proliferation, read-out: Prostate cancer EC50 VCaP (Sigma)

EC50 (BT-549): 1170 nM
EC50 (CAMA1): 2740 nM
EC50 (DU4475): 4010 nM
EC50 (HCC1599): 1170 nM
EC50 (MCF7): > 10000 nM
EC50 (MDA-MB-231-Luc): 2090 nM
EC50 (T47D): 2360 nM
EC50 (ZR-75-1): 1680 nM
EC50 [1, 8]: 0.86 µM
EC50 [1, 9]: 8.89 µM
EC50 [1, 10]: 0.473 µM
EC50 [1, 11]: 2.35 µM
EC50 [1, 12]: 0.469 µM
EC50 [1, 13]: 0.491 µM
EC50 [2, 14]: 0.432 µM
EC50 [2, 15]: 0.039 µM
EC50 [2, 16]: 2.78 µM
EC50 [2, 17]: 0.398 µM
EC50 [2, 18]: 1.42 µM
EC50 [2, 19]: 0.176 µM
EC50 [2, 20]: 3.17 µM
EC50 [2, 21]: 0.182 µM
EC50 [2, 22]: 0.801 µM
EC50 [2, 23]: 0.466 µM
EC50 [2, 24]: 2.96 µM
EC50 [2, 25]: 6.09 µM
EC50 [2, 26]: 0.17 µM
EC50 [3, 27]: 174 nM
EC50 [3, 28]: 3590 nM
EC50 [3, 29]: > 10000 nM
EC50 [4, 30]: 0.591 µM
EC50 [4, 31]: 4.68 µM
EC50 [4, 32]: > 10 µM
EC50 [4, 33]: 0.417 µM
EC50 [5, 34]: 0.795 µM
EC50 [5, 35]: 0.713 µM
EC50 [5, 36]: 5.69 µM
EC50 [5, 37]: 0.302 µM
EC50 [6, 38]: 6080 nM
EC50 [6, 39]: 2370 nM
EC50 [6, 40]: 4980 nM
EC50 [6, 41]: 414 nM
EC50 [6, 42]: 5400 nM
EC50 [6, 43]: > 10000 nM
EC50 [6, 44]: 1970 nM
EC50 [7, 45]: 2570 nM
EC50 [7, 46]: 1180 nM
EC50 [7, 47]: 968 nM
EC50 [7, 48]: 7780 nM
EC50 [7, 49]: 4540 nM
SMILES: CN(C)Cc1cncc(-c2cnc3[nH]nc(-c4nc5c(-c6cc(F)cc(N7CCOCC7)c6)cncc5[nH]4)c3c2)c1 [Compound 46]
EC50 (all 50 cell lines): 2860 nM

EC50 (BT-549): 169 nM
EC50 (CAMA1): 216 nM
EC50 (DU4475): 123 nM
EC50 (HCC1599): 91 nM
EC50 (MCF7): 483 nM
EC50 (MDA-MB-231-Luc): 188 nM
EC50 (T47D): 246 nM
EC50 (ZR-75-1): 177 nM
EC50 [1, 8]: 0.102 µM
EC50 [1, 9]: 0.187 µM
EC50 [1, 10]: 0.067 µM
EC50 [1, 11]: 0.141 µM
EC50 [1, 12]: 0.051 µM
EC50 [1, 13]: 0.143 µM
EC50 [2, 14]: 0.154 µM
EC50 [2, 15]: 0.042 µM
EC50 [2, 16]: 0.045 µM
EC50 [2, 17]: 0.155 µM
EC50 [2, 18]: 0.449 µM
EC50 [2, 19]: 0.044 µM
EC50 [2, 20]: 0.333 µM
EC50 [2, 21]: 0.046 µM
EC50 [2, 22]: 0.119 µM
EC50 [2, 23]: 0.142 µM
EC50 [2, 24]: 0.162 µM
EC50 [2, 25]: 0.225 µM
EC50 [2, 26]: 0.046 µM
EC50 [3, 27]: 34 nM
EC50 [3, 28]: 130 nM
EC50 [3, 29]: 301 nM
EC50 [4, 30]: 0.114 µM
EC50 [4, 31]: 0.19 µM
EC50 [4, 32]: 0.196 µM
EC50 [4, 33]: 0.079 µM
EC50 [5, 34]: 0.12 µM
EC50 [5, 35]: 0.108 µM
EC50 [5, 36]: 0.256 µM
EC50 [5, 37]: 0.067 µM
EC50 [6, 38]: 284 nM
EC50 [6, 39]: 152 nM
EC50 [6, 40]: 289 nM
EC50 [6, 41]: 84 nM
EC50 [6, 42]: 138 nM
EC50 [6, 43]: 251 nM
EC50 [6, 44]: 83 nM
EC50 [7, 45]: 208 nM
EC50 [7, 46]: 159 nM
EC50 [7, 47]: 113 nM
EC50 [7, 48]: 305 nM
EC50 [7, 49]: 333 nM
SMILES: CN1CCN(c2cc(C(=O)Nc3cc4cc(-c5cnn(C)c5N)ccc4cn3)ccn2)CC1 [Compound 75]
EC50 (all 50 cell lines): 167 nM
